Reference: patent US10711041B2, “Lyophilisate containing a cyclic peptide of formula X1-[sequence]-X2” (priority 2013, dated 2020)

Tests used:
[1] = Stability of the aqueous solution before inhalation (visual inspection, reverse HPLC); type: physicochemical
Protocol: For that reason the stability of an aqueous solution was investigated exemplarily. The ready to use-solution therefore was stored either in a syringe commonly used in laboratory, at 2 to 8° C. for 7 days, or in a container of a nebulizer at 25° C. for 24 hours. […] The methods used therefore were analytical methods commonly used in laboratory, as for example the visual inspection, as well as analysis by means of reverse HPLC.

[2] = biological target: T1, amilorid-sensitive Sodium Ion Channel (ENaC) (Homo sapiens, UniProt P37088); assay: Biological activity of condensed aerosol by Patch Clamp in A549 cells; type: cell-based; settings: Mesh-Type nebulizer, aerosol condensed in cooling trap
T1 construct: Macroscopic Sodium Ion Currents were derived from human lung epithelian cells A549; endogenous in cells; host or cells: A549 human lung epithelial cells
T1 sequence (P37088 1-669): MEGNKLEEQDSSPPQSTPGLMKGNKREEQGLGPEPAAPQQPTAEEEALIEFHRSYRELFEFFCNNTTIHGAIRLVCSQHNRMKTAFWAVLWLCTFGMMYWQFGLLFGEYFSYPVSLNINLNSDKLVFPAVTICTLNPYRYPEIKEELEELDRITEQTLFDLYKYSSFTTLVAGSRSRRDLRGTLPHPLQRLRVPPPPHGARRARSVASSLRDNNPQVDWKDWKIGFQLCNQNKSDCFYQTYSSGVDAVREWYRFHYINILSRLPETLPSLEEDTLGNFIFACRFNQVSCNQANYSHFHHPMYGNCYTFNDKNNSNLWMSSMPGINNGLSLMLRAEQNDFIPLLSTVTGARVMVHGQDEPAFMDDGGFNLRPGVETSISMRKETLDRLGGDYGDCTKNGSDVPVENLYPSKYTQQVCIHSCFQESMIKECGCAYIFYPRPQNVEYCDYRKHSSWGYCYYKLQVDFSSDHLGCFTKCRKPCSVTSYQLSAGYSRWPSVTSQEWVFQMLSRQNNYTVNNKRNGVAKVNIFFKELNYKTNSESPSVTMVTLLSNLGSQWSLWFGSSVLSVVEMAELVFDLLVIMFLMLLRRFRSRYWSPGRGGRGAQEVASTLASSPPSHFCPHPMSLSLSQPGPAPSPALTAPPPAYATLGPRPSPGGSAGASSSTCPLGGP
T1 sequence (P51168 1-640 partner): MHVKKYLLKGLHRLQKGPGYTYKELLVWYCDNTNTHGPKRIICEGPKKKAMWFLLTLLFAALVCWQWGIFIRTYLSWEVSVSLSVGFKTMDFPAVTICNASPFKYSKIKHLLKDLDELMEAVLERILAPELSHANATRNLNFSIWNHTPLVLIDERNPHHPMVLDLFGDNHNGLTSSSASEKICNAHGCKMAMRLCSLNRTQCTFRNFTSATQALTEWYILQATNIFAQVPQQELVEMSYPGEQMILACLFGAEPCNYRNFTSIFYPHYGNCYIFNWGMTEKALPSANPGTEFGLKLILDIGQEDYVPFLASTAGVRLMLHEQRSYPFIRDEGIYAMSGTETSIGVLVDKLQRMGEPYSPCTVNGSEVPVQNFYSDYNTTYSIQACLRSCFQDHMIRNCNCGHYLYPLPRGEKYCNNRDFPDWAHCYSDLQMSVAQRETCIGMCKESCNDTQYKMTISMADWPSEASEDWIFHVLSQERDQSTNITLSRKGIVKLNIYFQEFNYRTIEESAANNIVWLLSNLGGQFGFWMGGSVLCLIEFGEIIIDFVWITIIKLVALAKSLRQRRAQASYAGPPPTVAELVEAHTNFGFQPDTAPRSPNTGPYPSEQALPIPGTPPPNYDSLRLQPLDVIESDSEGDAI
T1 sequence (P51170 1-649 partner): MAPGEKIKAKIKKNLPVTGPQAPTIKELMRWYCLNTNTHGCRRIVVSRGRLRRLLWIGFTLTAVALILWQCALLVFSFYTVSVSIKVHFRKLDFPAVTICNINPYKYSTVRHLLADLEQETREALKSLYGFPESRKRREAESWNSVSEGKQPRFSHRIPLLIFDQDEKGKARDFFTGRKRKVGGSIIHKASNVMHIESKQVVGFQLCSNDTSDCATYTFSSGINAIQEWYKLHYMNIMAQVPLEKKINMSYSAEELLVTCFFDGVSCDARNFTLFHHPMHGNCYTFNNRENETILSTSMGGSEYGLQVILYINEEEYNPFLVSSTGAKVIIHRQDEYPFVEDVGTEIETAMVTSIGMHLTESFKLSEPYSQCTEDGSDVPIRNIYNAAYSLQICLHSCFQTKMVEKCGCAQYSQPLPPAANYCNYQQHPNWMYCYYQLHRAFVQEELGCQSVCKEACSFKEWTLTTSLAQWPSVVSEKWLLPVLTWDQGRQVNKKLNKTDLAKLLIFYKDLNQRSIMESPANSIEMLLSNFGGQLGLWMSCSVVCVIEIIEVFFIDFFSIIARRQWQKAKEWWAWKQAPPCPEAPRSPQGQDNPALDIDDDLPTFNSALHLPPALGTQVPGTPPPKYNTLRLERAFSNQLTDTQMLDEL
Protocol: Since proteins and peptides occasionally may be rather unstable, it was investigated, whether the cyclic peptides of amino acid sequence SEQ ID NO:1 to SEQ ID NO:6 in dissolved preparation during conversion into an aerosol remain stable. For that the cyclic peptides were dissolved in water as described in example 4. After filling into the storage container of a nebulizer the aqueous solution of the cyclic peptides were converted into an aerosol. For that a “Mesh-Type” nebulizer was used. The biological activity of the collected aerosols was determined by means of the Patch Clamp method. Thereby macroscopic currents of A549 cells were deduced in the “whole cell” configuration of the “Patch-clamp” technique, as described under “Electrophysiological Investigations of the Amilorid-sensitive Sodium Ion Channel (ENaC)”.

[3] = laboratory syringe, 2 to 8° C., T = 0 to 7 days
[4] = storage container of a nebulizer, 25° C., T = 0 to 24 hours

With `C[C@@H]1NC(=O)CNC(=O)[C@H](CCC(=O)O)NC(=O)[C@@H]2CCCN2C(=O)[C@H]([C@@H](C)O)NC(=O)[C@H](CCC(=O)O)NC(=O)[C@H](CCCNC(=N)N)NC(=O)[C@H](CCC(N)=O)NC(=O)CNC(=O)[C@@H](N)CSSC[C@@H](C(=O)O)NC(=O)[C@H](Cc2ccc(O)cc2)NC(=O)[C@H](Cc2c[nH]c3ccccc23)NC(=O)[C@@H]2CCCN2C(=O)[C@H](CCCCN)NC(=O)[C@H](C)NC(=O)[C@H](CCC(=O)O)NC1=O` [SEQ ID NO: 1] the “Purity of aqueous solution (stability study)” value (shortened to “Purity of aqueous solution”) ([1]; laboratory syringe, 2 to 8° C., T = 0) was 96.3%, the “Amount/contents of aqueous solution” value [1, 3] was 25 mg/mL and the “Appearance of aqueous solution” value [1, 3] was “clear solution”. The “Purity of aqueous solution” value ([1]; laboratory syringe, 2 to 8° C., T = 7 days) was 96.2%, the “Purity of aqueous solution” value ([1]; storage container of a nebulizer, 25° C., T = 0) was 96.6% and the “Amount/contents of aqueous solution” value [1, 4] was 25 mg/mL. The “Appearance of aqueous solution” value [1, 4] was “clear solution”, the “Purity of aqueous solution” value ([1]; storage container of a nebulizer, 25° C., T = 24 hours) was 96.5% and the “biological stability during transformation into an aerosol” value [2] was “keeps its biological, as well as its chemical stability”.
